Measured values taken from US20150038545A1, “HYDROXYPHENYL PYRROLE COMPOUNDS CONTAINING AN HYDROXAMIC ACID AS HDAC INHIBITORS AND MEDICINAL APPLICATIONS THEREOF” (UNIVERSIDAD DEL PAÍS VASCO, priority 2011, published 2015).

How the values were obtained:
SK-BR-3 = experiment: Cancer cell growth inhibition (CellTiter-Glo), SK-BR-3; assay type: cell-based, Human; conditions: Homo sapiens; Breast Cancer, SK-BR-3, 72 h treatment
Protocol: (§1) Cell culture-based assays were used to evaluate the ability of compounds of the invention to inhibit cancer cell growth.
(§2) Cells were obtained from the American Type Culture Collection (ATCC). Cells were cultured at 37° C. with 5% CO2 in the appropriate growth medium (see table below), and harvested respectively during the logarithmic growth period and counted with hemocytometer. The cell viability was examined by trypan blue exclusion. Cell concentrations were adjusted to 5.56×10^4 cells/ml with respective medium.
(§3) Stock solutions of test compounds and positive drugs Doxorubicin (Zhejiang, Haizheng, China), Cisplatin (Nanjing Zhiyao, China) and Mitomycin (Zhejiang, Haizheng, China) were prepared in dimethyl sulphoxide (DMSO) or PBS at 20 mM.
(§4) In order to determine the IC50 for each compound, experiments were carried out in 96-well plates and the cell lines seeded at a density of 5,000 cells/well. […] All treatments were performed in triplicate. 10 μl of drug solution was added to each well and incubated for 72 hours. At the end of the incubation, 100 μl of the CellTiter-Glo Reagent were added to each well and the contents were mixed for 2 munites on an orbital shaker to induce cell lysis. The plate was incubated at room temperature for 10 minutes to stabilize luminiscent signal, and luminiscent was recorded. […] In order to calculate IC50 values, dose-responsive curves were fitted using nonlinear regression model with a sigmoidal dose response.

DU145 = experiment: Cancer cell growth inhibition (CellTiter-Glo), DU145; assay type: cell-based, Human; conditions: Homo sapiens, DU-145; Prostate Cancer, DU145, 72 h treatment
Protocol: as §1, §2, §3, §4

LNCaP = experiment: Cancer cell growth inhibition (CellTiter-Glo), LNCaP; assay type: cell-based, Human; conditions: Homo sapiens, Prostate Cancer, 72 h treatment
Protocol: as §1, §2, §3, §4

Colo205 = experiment: Cancer cell growth inhibition (CellTiter-Glo), Colo205; assay type: cell-based; conditions: Homo sapiens, COLO 205; Colorectal Cancer, Colo205, 72 h treatment
Protocol: as §1, §2, §3, §4

HCT-116 = experiment: Cancer cell growth inhibition (CellTiter-Glo), HCT-116; assay type: cell-based; conditions: Homo sapiens; Colorectal Cancer, HCT-116, 72 h treatment
Protocol: as §1, §2, §3, §4

SW620 = experiment: Cancer cell growth inhibition (CellTiter-Glo), SW620; assay type: cell-based; conditions: Homo sapiens, SW-620; Colorectal Cancer, SW620, 72 h treatment
Protocol: as §1, §2, §3, §4

NCI-H460 = experiment: Cancer cell growth inhibition (CellTiter-Glo), NCI-H460; assay type: cell-based, Human; conditions: Homo sapiens; Lung Cancer, NCI-H460, 72 h treatment
Protocol: as §1, §2, §3, §4

HepG2 = experiment: Cancer cell growth inhibition (CellTiter-Glo), HepG2; assay type: cell-based; conditions: Homo sapiens; Liver Cancer, HepG2, 72 h treatment
Protocol: as §1, §2, §3, §4

143b = experiment: Cancer cell growth inhibition (CellTiter-Glo), 143b; assay type: cell-based; conditions: Homo sapiens, Osteosarcoma, 72 h treatment
Protocol: as §1, §2, §3, §4

SK-MEL-5 = experiment: Cancer cell growth inhibition (CellTiter-Glo), SK-MEL-5; assay type: cell-based, Human; conditions: Homo sapiens; Melanoma, SK-MEL-5, 72 h treatment
Protocol: as §1, §2, §3, §4

NCI-N87 = experiment: Cancer cell growth inhibition (CellTiter-Glo), NCI-N87; assay type: cell-based, Human; conditions: Homo sapiens; Gastric Cancer, NCI-N87, 72 h treatment
Protocol: as §1, §2, §3, §4

OVCAR3 = experiment: Cancer cell growth inhibition (CellTiter-Glo), OVCAR3; assay type: cell-based, Human; conditions: Homo sapiens, OVCAR-3; Ovarian Cancer, OVCAR3, 72 h treatment
Protocol: as §1, §2, §3, §4

RPMI-8226 = experiment: Cancer cell growth inhibition (CellTiter-Glo), RPMI-8226; assay type: cell-based, Human; conditions: Homo sapiens; Orthotopic Multiple Myeloma, RPMI-8226, 72 h treatment
Protocol: as §1, §2, §3, §4

Row | IC50 (SK-BR-3) [µM] | IC50 (DU145) [µM] | IC50 (LNCaP) [µM] | IC50 (Colo205) [µM] | IC50 (HCT-116) [µM] | IC50 (SW620) [µM] | IC50 (NCI-H460) [µM] | IC50 (HepG2) [µM] | IC50 (143b) [µM] | IC50 (SK-MEL-5) [µM] | IC50 (NCI-N87) [µM] | IC50 (OVCAR3) [µM] | IC50 (RPMI-8226) [µM] | SMILES
1 | 0.43 | 0.72 | 0.59 | 0.59 | 0.45 | 0.3 | 10.9 | 0.28 | 2.91 | 0.82 | 0.16 | 1.05 | 6.2 | O=C(CCCCCNC(=O)c1[nH]c(-c2ccc(O)cc2)cc1-c1ccoc1)NO [Example 5, 3-(3-furyl)-N-(5-(hydroxycarbamoyl)pentyl)-5-(4-hydroxy-phenyl)-1H-pyrrole-2-carboxamide]
2 | 1.36 | 1.05 | 0.8 | 0.87 | 0.78 | 0.67 | 9.38 | 0.48 | 2.72 | 1.02 | 0.48 | 1.74 | 4.8 | O=C(CCCCCNC(=O)c1[nH]c(-c2ccc(O)cc2)cc1-c1ccsc1)NO [Example 6, N-(5-(hydroxycarbamoyl)pentyl)-5-(4-hydroxyphenyl)-3-(3-thienyl)-1H-pyrrole-2-carboxamide]
3 | 3.37 | 1.86 | 1.77 | 1.82 | 1.75 | 1.48 | 9.41 | 0.99 | 5.38 | 1.87 | 1.24 | 3.34 | 4.47 | O=C(CCCCCNC(=O)c1[nH]c(-c2ccc(O)cc2)cc1-c1ccccc1)NO [Example 2, N-(6-(hydroxyamino)-6-oxohexyl)-5-(4-hydroxyphenyl)-3-phenyl-1H-pyrrole-2-carboxamide]
4 | 3.49 | 0.81 | 1.11 | 1.87 | 0.95 | 1.31 | 2.4 | 1.1 | 1.71 | 1.28 | 1 | 3.3 | 0.7 | O=C(CCCCCNC(=O)c1[nH]c(-c2ccccc2)cc1-c1ccc(O)cc1)NO [Example 1, N-(6-(hydroxyamino)-6-oxohexyl)-3-(4-hydroxyphenyl)-5-phenyl-1H-pyrrole-2-carboxamide]
